Measured values as given in patent US11135214B2, “Methods for enhancing the bio availability and exposure of a voltage-gated potassium channel opener” (priority 2018, dated 2021).
Several values for one entry are separate records, joined by “and”; a condition that tells them apart may be missing. Identical values can stand only once. Like-named read-outs stand apart in the source and are kept apart here.

Tests used:
[1] = Open-label randomized two-period fed/fasted crossover study, plasma PK; conditions: human, in vivo
Source text: The study consisted of two Treatment Periods, Period 1 and Period 2. Each Treatment Period consisted of 7 days, with the dosing of Compound A occurring on Day 1. The two treatment periods were separated by a washout period of 10 days. The subjects were randomized into two groups. During Treatment Period 1, one group received an oral dose of Compound A while fasted and the other group received an oral dose of Compound A when fed. The group which fasted in Treatment Period 1 was fed in Treatment Period 2 and vice versa.
On Day 1 of each Treatment Period, each subject orally received 20 mg of Compound A (4 capsules with 5 mg of Compound A in each capsule).
During the fed period, following an overnight fast of at least 10 hours, a standard high fat, high calorie breakfast was given as per FDA guidance; the breakfast was given 30 minutes prior to the scheduled dosing time, and was completed 10 minutes before dosing. A representative breakfast included 2 slices of buttered toast, 2 fried eggs, 2 strips of bacon, 4 oz. of hash brown potatoes, and 8 oz. of whole milk.
During the fasted period, dosing occurred after an overnight fast of at least 10 hours. No food was allowed for 4 hours post-dose in either the fed or fasted period. Water was allowed as desired except for one hour before and after dosing.
For all subjects, blood samples for the determination of Compound A plasma concentration were collected at dosing (0.0 hours (time zero)) and at 0.5, 1.0, 1.5, 2.0, 3.0, 4.0, 6.0, 8.0, 12.0, 24.0, 32.0, 48.0 and 144.0 hours post-dose.

[2] = system: cortical excitability; assay: TMS crossover study, global mean field power (GMFP); type: in vivo, human; conditions: 20 mg, pre-dose vs post-dose (FIG. 12)
Source text: Additional measures of cortical excitability including global mean field power were similarly impacted.

[3] = Food effect study, oral capsule, plasma PK in non-human primate; type: in vivo, Cynomolgus monkeys; conditions: for Cmax / Tmax / AUC(0-t) / AUC(0-inf) / t½λz / AUClast: 3 mg/kg capsule; for AUC(0-inf): read-out: AUCinfobs
Protocol: The following study was conducted to determine the effect of food when Compound A is orally administered to a non-human primate.
Three (n=3) Cynomolgus monkeys of Vietnamese origin were used in this study. At the time of initial dose administration, the monkeys weighed 4.7 to 5.1 kg and were about 4.5 years of age.
A certified primate diet (Teklad® Certified Diet 2050C) was fed during the study. For Group 1, the three monkeys were fasted overnight with food returned 4 hours post-dose. For Group 2, the same three monkeys were fasted overnight and offered food about 1 hour prior to dosing and food was returned at 4 hours post-dose. The following Table 1 gives the food consumption for Group 2:
The oral dosage units consisted of about 3 mg/kg of Compound A in a capsule. The capsules were filled the morning of the dose administration and kept at room temperature until dosing. The remaining capsules were placed into the −20° C. storage.
The capsules were placed as far back in the animal's mouth as possible using a pill gun or a modified gavage tube. Approximately 10 mL of water was administered via syringe to ensure complete delivery of the intended dose. Each animal received 1 capsule per dose. The same animals were dosed twice with a 96 hour washout period between doses.
Group 1: All animals were weighed the afternoon prior to dose administration. Animal #2 struggled with dosing. After several attempts, the animal was given a short break and finally dosed successfully.
Group 2: All animals were weighed the morning of dose administration. All animals were dosed without incident.
Whole blood (˜2.0 mL) was collected using syringe and needle from cephalic or saphenous veins and transferred into vacutainer tubes containing K2EDTA and kept on wet ice until processed for plasma. Blood samples were collected at time of dosing (0.0 hours, time zero) and at 0.5, 1, 2, 4, 8, 12, 24 and 48 hours post-dose.
The whole blood samples were placed in a K2EDTA tube and centrifuged at 3200 RPM for 10 minutes at approximately 5° C. Plasma samples were divided into 2 aliquots and each aliquot directly transferred to appropriately labeled, individual tubes containing study number, collection time point, animal ID number, and sample description. One aliquot was placed into storage at −20±5° C. until shipment for analysis. The other aliquot was retained at −20±5° C. Red blood cells were disposed.
All samples were processed per standard protocol for bioanalytical analysis.

[4] = Cynomolgus (Vietnamese origin), cynomolgus monkey, plasma, po, 3 mg/kg, Group 2 (fed), individual subjects
[5] = Cynomolgus, Vietnamese origin, cynomolgus monkey, plasma, po, 3 mg/kg, Group 1 (fasted), Mean
[6] = Group 1 (fasted), individual subjects, 3 mg/kg
[7] = Group 2 (fed), individual subjects, 3 mg/kg
[8] = cynomolgus monkey, plasma, oral, 3 mg/kg, Group 1 (fasted), 3 mg/kg, N=3, read-out: Mean plasma concentration
[9] = cynomolgus monkey, plasma, oral, 3 mg/kg, Group 2 (fed), 3 mg/kg, N=3, read-out: Mean plasma concentration

Compound: Cc1cc(N2CCc3cc(F)ccc3C2)cc(C)c1NC(=O)CC(C)(C)C [Compound A, N-[4-(6-fluoro-3,4-dihydro-1H-isoquinolin-2-yl)-2,6-dimethylphenyl]-3,3-dimethylbutanamide]
- concentration at 3 h ([1]; both sexes, fed, 20 mg oral, 3.0 h, individual subjects, read-out: Compound A Concentration): 104 ng/mL
- Cmax ([1]; both sexes, fed, 20 mg oral, individual subjects): 104 ng/mL
- bioavailability and exposure, fed compared to fasted conditions ([1]; po, 20 mg): significantly enhanced
- global mean field power (GMFP) [2]: reduction of cortical excitability over time
- Cmax ([3]; Cynomolgus (Vietnamese origin), cynomolgus monkey, plasma, po, 3 mg/kg, Group 2 (fed), Mean, read-out: Cmax): 65.4 ng/mL
- Tmax ([3]; Cynomolgus (Vietnamese origin), cynomolgus monkey, plasma, po, 3 mg/kg, Group 2 (fed), Mean, read-out: Tmax): 8 h
- AUC(0-t) [3, 4]: 1120 ng·h/mL
- AUC(0-inf) [3, 4]: 1180 ng·h/mL
- Cmax ([3]; Cynomolgus (Vietnamese origin), cynomolgus monkey, plasma, po, 3 mg/kg, Group 2 (fed), individual subjects, read-out: Cmax): 50.4 ng/mL
- AUC(0-t) [3, 5]: 1490 ng·h/mL
- AUC(0-inf) [3, 5]: 913 ng·h/mL
- Cmax ([3]; Cynomolgus, Vietnamese origin, cynomolgus monkey, plasma, po, 3 mg/kg, Group 1 (fasted), Mean, read-out: Cmax): 55.7 ng/mL
- Tmax ([3]; Cynomolgus, Vietnamese origin, cynomolgus monkey, plasma, po, 3 mg/kg, Group 1 (fasted), Mean, read-out: Tmax): 10.7 h
- Cmax ([3]; Cynomolgus, Vietnamese origin, cynomolgus monkey, plasma, po, 3 mg/kg, Group 1 (fasted), individual subjects, read-out: Cmax): 75.1 ng/mL
- Tmax ([3]; Cynomolgus, Vietnamese origin, cynomolgus monkey, plasma, po, 3 mg/kg, Group 1 (fasted), individual subjects, read-out: Tmax): 12 h
- t½λz ([3]; Group 1 (fasted), Mean): 9.7 h
- t½λz ([3]; Group 1 (fasted), individual subjects): 9.7 h
- AUClast [3, 6]: 1940 ng·h/mL and 1650 ng·h/mL and 869 ng·h/mL
- Cmax [3, 6]: 53.7 ng/mL and 38.4 ng/mL
- t½λz ([3]; Group 2 (fed), Mean): 10.1 h
- t½λz ([3]; Group 2 (fed), individual subjects): 10.1 h
- AUClast [3, 7]: 2010 ng·h/mL and 1790 ng·h/mL
- Cmax [3, 7]: 67.5 ng/mL and 78.2 ng/mL
- Tmax [3, 7]: 4 h
- concentration at 0 h [3, 8]: 0 ng/mL
- concentration at 0.5 h [3, 8]: 0 ng/mL
- concentration at 1 h [3, 8]: 6.89 ng/mL
- concentration at 2 h ([3]; cynomolgus monkey, plasma, oral, 3 mg/kg, Group 1 (fasted), 3 mg/kg, 2 h, N=3): 15.3 ng/mL
- concentration at 4 h ([3]; cynomolgus monkey, plasma, oral, 3 mg/kg, Group 1 (fasted), 3 mg/kg, 4 h, N=3, read-out: Mean plasma concentration): 16.6 ng/mL
- concentration at 8 h ([3]; cynomolgus monkey, plasma, oral, 3 mg/kg, Group 1 (fasted), 3 mg/kg, 8 h, N=3, read-out: Mean plasma concentration): 49.9 ng/mL
- concentration at 12 h ([3]; cynomolgus monkey, plasma, oral, 3 mg/kg, Group 1 (fasted), 3 mg/kg, 12 h, N=3, read-out: Mean plasma concentration): 55.7 ng/mL
- concentration at 24 h ([3]; cynomolgus monkey, plasma, oral, 3 mg/kg, Group 1 (fasted), 3 mg/kg, 24 h, N=3): 42.5 ng/mL
- concentration at 48 h ([3]; cynomolgus monkey, plasma, oral, 3 mg/kg, Group 1 (fasted), 3 mg/kg, 48 h, N=3): 8.94 ng/mL
- concentration at 0 h [3, 9]: 0 ng/mL
- concentration at 0.5 h [3, 9]: 0.35 ng/mL
- concentration at 1 h [3, 9]: 1.25 ng/mL
